Read-outs that look alike come from different tables or passages of the source.

These results are taken from patent publication US12240857B2 (priority 2017, dated 2025).

Series [1] deals with full-length Ebola Zaire GP pseudotyped VSV (EBOV_FL). Put plainly: microbe, parasite or virus in culture. The following applies: Zaire ebolavirus, read-out: EC50 Pseudotype Assays EBOV_FL. The class given is cell-based.
The subject of series [2] is parent VSV virus expressing the native VSV glycoprotein. Put plainly: microbe, parasite or virus in culture. The following applies: Vesicular stomatitis virus, Vero; for EC50: read-out: EC50 Pseudotype Assays VSV; for inhibition at 5 µM: read-out: VSV % inh. at 5 μM. The class given is cell-based.
The nature of the next series: in vitro. As to conditions: African green monkey.
The subject of series [3] is full-length LASV glycoprotein pseudotyped VSV. Put plainly: microbe, parasite or virus in culture. Format: cell-based, Lassa virus. The following applies: Vesicular stomatitis virus, read-out: EC50 Pseudotype Assays LASV.
Series [4] relates to EBOV mucin-domain-deleted glycoprotein pseudotyped VSV. Put plainly: microbe, parasite or virus in culture. Format: cell-based, Zaire ebolavirus.
For series [5], the system named is BDBV mucin-domain-deleted glycoprotein pseudotyped VSV. Put plainly: microbe, parasite or virus in culture. The class given is cell-based, Bundibugyo ebolavirus.
Series [6] deals with full-length Marburgvirus (MARV) GP pseudotyped VSV. Put plainly: microbe, parasite or virus in culture. The following applies: for EC50: Orthomarburgvirus, read-out: EC50 Pseudotype Assays MARV. The class given is cell-based, Marburg marburgvirus.
The subject of series [7] is wild-type Ebola Zaire. Put plainly: microbe, parasite or virus in culture. As to conditions: Zaire ebolavirus, HeLa, read-out: Ebola Zaire EC50.
For series [8], the system named is wild-type Ebola Zaire.
The test system of another series is Vero cells. As to conditions: for % cell viability at 5 μM / % cell viability at 3 μM / % cell viability at 10 μM: African green monkey.
Setting [9] is: Zaire ebolavirus, Vero, read-out: EC50 EBOV.
Setting [10] is: Zaire ebolavirus, Vero, read-out: EC50 Pseudotype Assays EBOV.
The mark [11] stands for this setting: Vesicular stomatitis virus, Vero, read-out: EC50 BDBV.
[12] abbreviates: Vesicular stomatitis virus, Vero, read-out: EC50 Pseudotype Assays BDBV.
[13] abbreviates: Zaire ebolavirus, Vero, 24 h, read-out: EC50 EBOV.
Setting [14] is: Vesicular stomatitis virus, Vero, 24 h, read-out: EC50 BDBV.

As usually defined, the EC50 is the concentration needed to bring the measured effect to its halfway point. As for `CN1CCC(NC(=O)C23CC4CC(C2)CC(c2ccccc2)(C4)C3)CC1` [Example A26], the EC50 in series [1] was 160 nM; in series [2], above 10000 nM; in series [3], above 10000 nM; in [4] (setting [9]) it was 120 nM; in [4] (setting [10]), 120 nM; in series [5] (setting [11]), 90 nM. Moreover, the EC50 in series [5] (setting [12]) was 90 nM; in [6], 2700 nM. Also, the CC50 in “in vitro” (CC50) is 34000 nM; in the series “in vitro” (Cytotox CC50), above 10000 nM.

As for `CC12CC3CC(C(=O)N[C@H]4CN5CCC4CC5)(C1)CC(c1ccccc1)(C3)C2` (some centres unmarked) [Example A45], the EC50 with wild-type Ebola Zaire [7] is 380 nM; in series [1], 120 nM; in [2], above 10000 nM; in [3] it was above 10000 nM; in series [4] (setting [9]) it was 60 nM; in [4] (setting [10]) it was 61 nM. For the same compound, the 50% effective concentration (EC50) in series [5] (setting [11]) turned out to be 140 nM; in [5] (setting [12]), 160 nM; in series [6], 290 nM. Besides, the figures for the CC50 in “in vitro” (CC50) and in “in vitro” (Cytotox CC50) were 7200 nM and above 10000 nM, respectively. The “Ebola Zaire SI (CC50/EC50)” value in the series with wild-type Ebola Zaire [8] is listed as above 28. For the same compound, the “MARV pseudotyped virus EC50 concentration (in words)” value in series [6] is “sub-micromolar”.

Take `CN1CCN(NC(=O)C23CC4CC(C)(C2)CC(c2ccccc2)(C4)C3)CC1` (centres unmarked) [Example A47]: the EC50 with wild-type Ebola Zaire [7] was 710 nM; in [4] (setting [9]), 70 nM; in series [5] (setting [11]) it was 170 nM. In the series “in vitro” (CC50), the CC50 was 36200 nM. In addition, the “Ebola Zaire SI (CC50/EC50)” value in the series with wild-type Ebola Zaire [8] is listed as above 8.5.

On to `O=C(N1CCNCC1)C12CC3CC(C1)CC(c1ccccc1)(C3)C2` [Example A60], for which the EC50 in series [1] is 280 nM; in series [2], above 10000 nM; in series [3], above 10000 nM; in [4] (setting [9]), 210 nM; in series [4] (setting [10]) it was 260 nM; in series [5] (setting [11]) it was 170 nM. For the same compound, the EC50 was found to be 210 nM in series [5] (setting [12]) and 7900 nM in [6]. The CC50 in “in vitro” (Cytotox CC50) was above 10000 nM.

On to `CC12CC3CC(C(=O)N4CCNCC4)(C1)CC(c1ccccc1)(C3)C2` (centres unmarked) [Example A71], for which the figures for the EC50 (in the series with wild-type Ebola Zaire [7]; in series [4] (setting [9]); in [5] (setting [11])) were 870 nM, 130 nM and 130 nM, respectively. This compound also registered a CC50 in the series “in vitro” (CC50) of 4600 nM. Further, in the series on wild-type Ebola Zaire [8], the “Ebola Zaire SI (CC50/EC50)” value is above 6.

For `O=C(NC1CCN(Cc2ccccc2)CC1)C12CC3CC(C1)CC(c1ccccc1)(C3)C2` [Example B1, N-(1-benzylpiperidin-4-yl)-3-phenyladamantane-1-carboxamide], the inhibition at 5 µM in series [2] was below 20%. Besides, in the series with Vero cells, the “% cell viability at 5 μM” value is given as 62%. For the same compound, the results for the EC50 in series [4] (setting [13]) and in [5] (setting [14]) were 440 nM and 770 nM, respectively.

`O=C(N1CCN(c2ccccc2)CC1)C12CC3CC(C1)CC(c1ccccc1)(C3)C2` [Example B3, 1-phenyl-4-[(3-phenyladamantan-1-yl)carbonyl]piperazine]: the “% cell viability at 5 μM” value with Vero cells is 83%. The values for the EC50 in series [4] (setting [13]) and in [5] (setting [14]) were 610 nM and above 5000 nM, respectively.

As to `CC(C)(CNC(=O)C12CC3CC(C1)CC(c1ccccc1)(C3)C2)N1CCOCC1` [Example B4, N-[2-methyl-2-(morpholin-4-yl)propyl]-3-phenyladamantane-1-carboxamide], in the series with Vero cells, the “% cell viability at 3 μM” value was determined as 100% and the “% cell viability at 10 μM” value came to 114%. The half-maximal effective concentration (EC50) in [4] (setting [13]) came to 690 nM. In addition, the EC50 in series [5] (setting [14]) was determined as 2690 nM.

Turning to `O=C(N[C@@H]1CCNC1)C12CC3CC(C1)CC(c1ccccc1)(C3)C2` [Example B5, 3-phenyl-N-[(3R)-pyrrolidin-3-yl] adamantane-1-carboxamide], the inhibition at 5 µM in [2] was below 20%. Moreover, in the series with Vero cells, the “% cell viability at 5 μM” value is 97%. The results for the EC50 in series [4] (setting [13]) and in series [5] (setting [14]) were 790 nM and 560 nM, respectively.

On to `COc1ccc(N2CCN(CCCNC(=O)C34CC5CC(C3)CC(c3ccccc3)(C5)C4)CC2)cc1` [Example B6, N-{3-[4-(4-methoxyphenyl)piperazin-1-yl]propyl}-3-phenyl adamantane-1-carboxamide], for which, in the series with Vero cells, the “% cell viability at 3 μM” value was found to be 75% and the “% cell viability at 10 μM” value stood at 25%. Besides, the EC50 in series [4] (setting [13]) is 920 nM. Moreover, in series [5] (setting [14]), the EC50 turned out to be 1600 nM.

As to `COc1ccc(C(CNC(=O)C23CC4CC(C2)CC(c2ccccc2)(C4)C3)N2CCOCC2)cc1` (centres unmarked) [Example B7, N-[2-(4-methoxyphenyl)-2-(morpholin-4-yl)ethyl]-3-phenyl adamantane-1-carboxamide], in the series on Vero cells, the “% cell viability at 3 μM” value came to 112% and the “% cell viability at 10 μM” value came out at 95%. The concentration for a half-maximal effect (EC50) in [4] (setting [13]) turned out to be 3200 nM. In series [5] (setting [14]), the EC50 came to 3100 nM.

With `O=C(NCC(c1cccs1)N1CCOCC1)C12CC3CC(C1)CC(c1ccccc1)(C3)C2` (centres unmarked) [Example B8, N-[2-(morpholin-4-yl)-2-(thiophen-2-yl)ethyl]-3-phenyladamantane-1-carboxamide], in the series on Vero cells, the “% cell viability at 3 μM” value is 103% and the “% cell viability at 10 μM” value worked out at 90%. For the same compound, in [4] (setting [13]), the EC50 amounted to 3600 nM. Besides, in series [5] (setting [14]), the concentration giving a half-maximal response (EC50) was determined as 4600 nM.

For `O=C(NC1CCN(Cc2ccccc2)CC1)C12CC3CC(CC(Cl)(C3)C1)C2` [Example B9, N-(1-benzylpiperidin-4-yl)-3-chloro adamantane-1-carboxamide], in the series with Vero cells, the “% cell viability at 3 μM” value is reported as 112% and the “% cell viability at 10 μM” value turned out to be 104%. For the same compound, the 50% effective concentration (EC50) in [4] (setting [13]) came out at 3800 nM. Moreover, the half-maximal effective concentration (EC50) in series [5] (setting [14]) was determined as 3100 nM.

For `O=C(CN1CCN(C(=O)C23CC4CC(C2)CC(c2ccccc2)(C4)C3)CC1)NC1CC1` [Example B10, N-cyclopropyl-2-{4-[(3-phenyladamantan-1-yl)carbonyl]piperazin-1-yl}acetamide], the inhibition at 5 µM in [2] is below 20%. Moreover, in series [4] (setting [13]), the EC50 is below 5000 nM.

As to `Cc1ccc(C23CC4CC(CC(C(=O)NC5CN6CCC5CC6)(C4)C2)C3)cc1` (centres unmarked) [Example B11, N-{1-azabicyclo[2.2.2]octan-3-yl}-3-(4-methylphenyl)adamantane-1-carboxamide], the inhibition at 5 µM in series [2] is below 20%. Further, the “% cell viability at 5 μM” value in the series on Vero cells was 92%. The EC50 in series [4] (setting [13]) is below 5000 nM.

Consider `CC12CC3CC(C)(C1)CC(C(=O)NCCN1CCCCC1)(C3)C2` [Example B12, 3,5-dimethyl-N-[2-(piperidin-1-yl)ethyl] adamantane-1-carboxamide], for which the inhibition at 5 µM in [2] is below 20%. Further, in the series on Vero cells, the “% cell viability at 5 μM” value turned out to be 90%. For the same compound, the EC50 in series [4] (setting [13]) was found to be 50000 nM.

`Cc1ccc(C23CC4CC(CC(C(=O)N5CCN(Cc6ccccc6)CC5)(C4)C2)C3)cc1` [Example B13, 1-benzyl-4-{[3-(4-methylphenyl)adamantan-1-yl]carbonyl}piperazine]: the inhibition at 5 µM in [2] was below 20%. In addition, the EC50 in series [4] (setting [13]) and in series [5] (setting [14]) was above 5000 nM throughout.

Consider `Cc1ccc(C23CC4CC(CC(C(=O)N5CCN(C)CC5)(C4)C2)C3)cc1` [Example B14, 1-methyl-4-{[3-(4-methylphenyl)adamantan-1-yl]carbonyl} piperazine], for which the inhibition at 5 µM in series [2] is below 20%. Besides, the “% cell viability at 5 μM” value in the series on Vero cells came out at 95%. Besides, the EC50 in series [4] (setting [13]) is 5600 nM.

With `O=C(NC1CCN(Cc2ccccc2)CC1)C12CC3CC(CC(C3)C1)C2` [Example B15, N-(1-benzylpiperidin-4-yl)adamantane-1-carboxamide], the “% cell viability at 3 μM” value with Vero cells came to 99%. Also, in the series with Vero cells, the “% cell viability at 10 μM” value is listed as 98%. Also, the EC50 was 5900 nM in [4] (setting [13]) and 3900 nM in series [5] (setting [14]).

With `CC1CCCC(C)N1CC(O)COCCC12CC3CC(CC(C3)C1)C2` (centres unmarked) [Example D8, 1-[2-(adamantan-1-yl)ethoxy]-3-(2,6-dimethylpiperidin-1-yl) propan-2-ol], the concentration for a half-maximal effect (EC50) was found to be 300 nM in series [1]; 3800 nM in [2]; 4900 nM in series [3]; 210 nM in series [4] (setting [13]); 210 nM in series [4] (setting [10]); 80 nM in [5] (setting [14]). In addition, the figures for the EC50 in series [5] (setting [12]) and in series [6] were 80 nM and 590 nM, respectively. Besides, the CC50 stood at 3800 nM in the series “in vitro” (CC50) and 4000 nM in “in vitro” (Cytotox CC50). The “MARV pseudotyped virus EC50 concentration (in words)” value in series [6] is “sub-micromolar”.

Consider `CCN(CC)CCNc1nc(C23CC4CC(CC(C4)C2)C3)cs1` [Example D32, (2-{[4-(adamantan-1-yl)-1,3-thiazol-2-yl]amino}ethyl) diethylamine], for which the EC50 was 200 nM in series [1]; above 10000 nM in series [2]; above 10000 nM in [3]; 230 nM in series [4] (setting [13]); 230 nM in series [4] (setting [10]); 170 nM in series [5] (setting [14]). Besides, the EC50 in series [5] (setting [12]) turned out to be 170 nM; in series [6] it was 610 nM. Moreover, the CC50 is 9000 nM in “in vitro” (CC50) and above 10000 nM in the series “in vitro” (Cytotox CC50). In series [6], the “MARV pseudotyped virus EC50 concentration (in words)” value is reported as “sub-micromolar”.

In the series with Vero cells, `Cc1ccccc1-c1nnn(CC(=O)NC(C)C23CC4CC(CC(C4)C2)C3)n1` (centres unmarked) [Example D42, N-[1-(adamantan-1-yl)ethyl]-2-[5-(2-methylphenyl)-2H-1,2,3,4-tetrazol-2-yl] acetamide] gave a CC50 above 10000 nM. The EC50 in [4] (read-out: EC50 EBOV) came to 3200 nM; in series [5] (read-out: EC50 BDBV), 3900 nM.
